According to PubChem BioAssay AID1963447 (Molecular Pharmacology Branch, DTP, NCI, 2024):

Test system: 885512-296-R-J2-PDC complex spheroid growth, % test/control
Experiment: Anticancer human tumor 885512-296-R-J2-PDC patient-derived breast carcinoma cell line growth inhibition [Asc]
Conditions: for IC50: curve of first compound; for viability, T/C: stronger effect = lower value
In short: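 Concentration series start at each agent's clinical Cmax, or at 10 microM when none is established, and drop in half-log steps; agents are applied alone or together to complex spheroids built with HUVEC and hMSC.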

[1] = second compound 0.1 µM, first compound 0.0316 µM
[2] = second compound 0.1 µM, first compound 0.1 µM
[3] = second compound 0.1 µM, first compound 0.316 µM
[4] = second compound 0.1 µM, first compound 1 µM
[5] = second compound 0.1 µM, first compound 3.16 µM
[6] = second compound 0.1 µM, first compound 10 µM
[7] = second compound 0.316 µM, first compound 0.0316 µM
[8] = second compound 0.316 µM, first compound 0.1 µM
[9] = second compound 0.316 µM, first compound 0.316 µM
[10] = second compound 0.316 µM, first compound 1 µM
[11] = second compound 0.316 µM, first compound 3.16 µM
[12] = second compound 0.316 µM, first compound 10 µM
[13] = second compound 1 µM, first compound 0.0316 µM
[14] = second compound 1 µM, first compound 0.1 µM
[15] = second compound 1 µM, first compound 0.316 µM
[16] = second compound 1 µM, first compound 1 µM
[17] = second compound 1 µM, first compound 3.16 µM
[18] = second compound 1 µM, first compound 10 µM
[19] = second compound 3.16 µM, first compound 0.0316 µM
[20] = second compound 3.16 µM, first compound 0.1 µM
[21] = second compound 3.16 µM, first compound 0.316 µM
[22] = second compound 3.16 µM, first compound 1 µM
[23] = second compound 3.16 µM, first compound 3.16 µM
[24] = second compound 3.16 µM, first compound 10 µM
[25] = second compound 10 µM, first compound 0.0316 µM
[26] = second compound 10 µM, first compound 0.1 µM
[27] = second compound 10 µM, first compound 0.316 µM
[28] = second compound 10 µM, first compound 1 µM
[29] = second compound 10 µM, first compound 3.16 µM
[30] = second compound 10 µM, first compound 10 µM
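Also: spheroids exposed to compounds for seven days.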
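For viability, T/C in this document: 100% = DMSO vehicle control wells.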

With `C=C(F)C(=O)N1CCN(c2nc(OCC3CCCN3C)nc3c2CCN(c2cccc4cccc(Cl)c24)C3)CC1CC#N` (stereo not given) + Cc1c(S(C)(=O)=O)c(-c2cc(F)cc(N3CCN(c4ccc(NS(=O)(=O)c5ccc(NC(CCN6CCC(C(=O)OCCCP(=O)(O)O)CC6)CSc6ccccc6)c(S(=O)(=O)C(F)(F)F)c5)cc4)CC3)c2)c(-c2ccc(Cl)cc2)n1C(C)C the IC50 (second compound 0.1 µM) was 1.87 µM, the IC50 (second compound 0.316 µM) was 1.92 µM and the IC50 (second compound 1 µM) was 1.91 µM. It also gave an IC50 (second compound 3.16 µM) of 1.82 µM, an IC50 (second compound 10 µM) of 2.14 µM and a viability, T/C [1] of 85.7%. The viability, T/C [2] was 91%, the viability, T/C [3] was 93.2% and the viability, T/C [4] was 85.9%. It also gave a viability, T/C [5] of 19.7%, a viability, T/C [6] of 0.11% and a viability, T/C [7] of 76.3%. It also gave a viability, T/C [8] of 96.2%, a viability, T/C [9] of 95% and a viability, T/C [10] of 90.5%. The viability, T/C [11] was 19.7%, the viability, T/C [12] was 0.13% and the viability, T/C [13] was 83.2%. For the same molecule, the viability, T/C [14] was 84.9%, the viability, T/C [15] was 97.1% and the viability, T/C [16] was 91.5%. It also gave a viability, T/C [17] of 19.5%, a viability, T/C [18] of 0.12% and a viability, T/C [19] of 101%. It also gave a viability, T/C [20] of 90.3%, a viability, T/C [21] of 92.1% and a viability, T/C [22] of 82.6%. For the same molecule, the viability, T/C [23] was 20.3%, the viability, T/C [24] was 0.12% and the viability, T/C [25] was 115%. It also gave a viability, T/C [26] of 107%, a viability, T/C [27] of 96.5% and a viability, T/C [28] of 100%. It also gave a viability, T/C [29] of 24.4% and a viability, T/C [30] of 0.18%.
Molecule `C=CC(=O)N1CCN(c2nc(=O)n(-c3c(C)ccnc3C(C)C)c3nc(-c4c(O)cccc4F)c(F)cc23)C(C)C1` (stereo not given) + Cc1c(S(C)(=O)=O)c(-c2cc(F)cc(N3CCN(c4ccc(NS(=O)(=O)c5ccc(NC(CCN6CCC(C(=O)OCCCP(=O)(O)O)CC6)CSc6ccccc6)c(S(=O)(=O)C(F)(F)F)c5)cc4)CC3)c2)c(-c2ccc(Cl)cc2)n1C(C)C has an IC50 (second compound 0.1 µM) of over 10 µM, an IC50 (second compound 0.316 µM) of over 10 µM and an IC50 (second compound 1 µM) of over 10 µM. The IC50 (second compound 3.16 µM) was over 10 µM, the IC50 (second compound 10 µM) was over 10 µM and the viability, T/C [1] was 85.3%. The viability, T/C [2] was 80.7%, the viability, T/C [3] was 92.2% and the viability, T/C [4] was 83.6%. The viability, T/C [5] was 87.6%, the viability, T/C [6] was 55.8% and the viability, T/C [7] was 94.3%. It also gave a viability, T/C [8] of 87.2%, a viability, T/C [9] of 86.8% and a viability, T/C [10] of 81.2%. The viability, T/C [11] was 101%, the viability, T/C [12] was 74.7% and the viability, T/C [13] was 80.6%. The viability, T/C [14] was 73.5%, the viability, T/C [15] was 93.3% and the viability, T/C [16] was 104%. For the same molecule, the viability, T/C [17] was 85.7%, the viability, T/C [18] was 62% and the viability, T/C [19] was 98.7%. For the same molecule, the viability, T/C [20] was 90.3%, the viability, T/C [21] was 109% and the viability, T/C [22] was 106%. The viability, T/C [23] was 90.2%, the viability, T/C [24] was 68.3% and the viability, T/C [25] was 119%. The viability, T/C [26] was 117%, the viability, T/C [27] was 114% and the viability, T/C [28] was 114%. The viability, T/C [29] was 98.8% and the viability, T/C [30] was 71.6%.
`CCN1C(C(=O)NC23CCC(C(=O)O)(CC2)CC3)C(c2cccc(Cl)c2F)C2(C(=O)Nc3cc(Cl)ccc32)C12CCCCC2` (stereo not given) + Cc1c(S(C)(=O)=O)c(-c2cc(F)cc(N3CCN(c4ccc(NS(=O)(=O)c5ccc(NC(CCN6CCC(C(=O)OCCCP(=O)(O)O)CC6)CSc6ccccc6)c(S(=O)(=O)C(F)(F)F)c5)cc4)CC3)c2)c(-c2ccc(Cl)cc2)n1C(C)C gave an IC50 (second compound 0.1 µM) of 2.46 µM, an IC50 (second compound 0.316 µM) of 1.82 µM and an IC50 (second compound 1 µM) of 2.37 µM. For the same molecule, the IC50 (second compound 3.16 µM) was over 3 µM, the IC50 (second compound 10 µM) was over 3 µM and the viability, T/C (second compound 0.1 µM, first compound 0.00949 µM) was 90.8%. The viability, T/C (second compound 0.1 µM, first compound 0.03 µM) was 96.3%, the viability, T/C (second compound 0.1 µM, first compound 0.0949 µM) was 99.4% and the viability, T/C (second compound 0.1 µM, first compound 0.3 µM) was 72.8%. It also gave a viability, T/C (second compound 0.1 µM, first compound 0.949 µM) of 73.8%, a viability, T/C (second compound 0.1 µM, first compound 3 µM) of 45.1% and a viability, T/C (second compound 0.316 µM, first compound 0.00949 µM) of 86.7%. It also gave a viability, T/C (second compound 0.316 µM, first compound 0.03 µM) of 101%, a viability, T/C (second compound 0.316 µM, first compound 0.0949 µM) of 99.6% and a viability, T/C (second compound 0.316 µM, first compound 0.3 µM) of 80.8%. It also gave a viability, T/C (second compound 0.316 µM, first compound 0.949 µM) of 64.4%, a viability, T/C (second compound 0.316 µM, first compound 3 µM) of 39.8% and a viability, T/C (second compound 1 µM, first compound 0.00949 µM) of 103%. It also gave a viability, T/C (second compound 1 µM, first compound 0.03 µM) of 79.3%, a viability, T/C (second compound 1 µM, first compound 0.0949 µM) of 85% and a viability, T/C (second compound 1 µM, first compound 0.3 µM) of 71.9%. For the same molecule, the viability, T/C (second compound 1 µM, first compound 0.949 µM) was 67.1%, the viability, T/C (second compound 1 µM, first compound 3 µM) was 42% and the viability, T/C (second compound 3.16 µM, first compound 0.00949 µM) was 109%. It also gave a viability, T/C (second compound 3.16 µM, first compound 0.03 µM) of 100%, a viability, T/C (second compound 3.16 µM, first compound 0.0949 µM) of 98.6% and a viability, T/C (second compound 3.16 µM, first compound 0.3 µM) of 95.4%. For the same molecule, the viability, T/C (second compound 3.16 µM, first compound 0.949 µM) was 78%, the viability, T/C (second compound 3.16 µM, first compound 3 µM) was 52.4% and the viability, T/C (second compound 10 µM, first compound 0.00949 µM) was 129%. It also gave a viability, T/C (second compound 10 µM, first compound 0.03 µM) of 101%, a viability, T/C (second compound 10 µM, first compound 0.0949 µM) of 119% and a viability, T/C (second compound 10 µM, first compound 0.3 µM) of 124%. It also gave a viability, T/C (second compound 10 µM, first compound 0.949 µM) of 112% and a viability, T/C (second compound 10 µM, first compound 3 µM) of 79.6%.
`COc1c(OCCCN2CCOCC2)ccc2c3n(c(=NC(=O)c4cnc(N)nc4)nc12)CCN3` + Cc1c(S(C)(=O)=O)c(-c2cc(F)cc(N3CCN(c4ccc(NS(=O)(=O)c5ccc(NC(CCN6CCC(C(=O)OCCCP(=O)(O)O)CC6)CSc6ccccc6)c(S(=O)(=O)C(F)(F)F)c5)cc4)CC3)c2)c(-c2ccc(Cl)cc2)n1C(C)C was tested, and the IC50 (second compound 0.1 µM) was 0.263 µM, the IC50 (second compound 0.316 µM) was 0.255 µM and the IC50 (second compound 1 µM) was 0.238 µM. For the same molecule, the IC50 (second compound 3.16 µM) was 0.224 µM, the IC50 (second compound 10 µM) was 0.247 µM and the viability, T/C (second compound 0.1 µM, first compound 0.00316 µM) was 95.2%. For the same molecule, the viability, T/C (second compound 0.1 µM, first compound 0.01 µM) was 87.2%, the viability, T/C [1] was 95.9% and the viability, T/C [2] was 69.3%. For the same molecule, the viability, T/C [3] was 47%, the viability, T/C [4] was 4.94% and the viability, T/C (second compound 0.316 µM, first compound 0.00316 µM) was 91.2%. For the same molecule, the viability, T/C (second compound 0.316 µM, first compound 0.01 µM) was 93.5%, the viability, T/C [7] was 79.3% and the viability, T/C [8] was 79%. For the same molecule, the viability, T/C [9] was 43.2%, the viability, T/C [10] was 5.3% and the viability, T/C (second compound 1 µM, first compound 0.00316 µM) was 98.8%. For the same molecule, the viability, T/C (second compound 1 µM, first compound 0.01 µM) was 101%, the viability, T/C [13] was 84% and the viability, T/C [14] was 70.2%. The viability, T/C [15] was 43.9%, the viability, T/C [16] was 5.16% and the viability, T/C (second compound 3.16 µM, first compound 0.00316 µM) was 92.4%. The viability, T/C (second compound 3.16 µM, first compound 0.01 µM) was 87.5%, the viability, T/C [19] was 77.5% and the viability, T/C [20] was 73.5%. For the same molecule, the viability, T/C [21] was 40%, the viability, T/C [22] was 5.34% and the viability, T/C (second compound 10 µM, first compound 0.00316 µM) was 117%. For the same molecule, the viability, T/C (second compound 10 µM, first compound 0.01 µM) was 112%, the viability, T/C [25] was 96.2% and the viability, T/C [26] was 81%. For the same molecule, the viability, T/C [27] was 40.7% and the viability, T/C [28] was 4.02%.
